Laboratory results reported in US6656942B2, “Orally active salts with tyrosine kinase activity” (Merck & Co., Inc., priority 2000, dated 2003).
Counter-ions that a name gives are not always drawn.

Experiment: Solubility of HCl salt 1-11D suspended in solvents for 7 days at room temperature
Type: physicochemical
Settings: RT for 7 days
Method: HCl salt 1-11D is also crystalline as witnessed by the X-ray powder diffraction pattern of the material, having multiple diffraction peaks between 5° and 30° 2-theta. […] (rate of 10° C./min). The compound is birefringent under plane polarized light. It is needle-shaped particles of approximately 5-25 micron. The solubility of salt 1-11D was measured in water and various organic solvents. Table VI below summarizes the solubility of the 1-11D suspended in various solvents for 7 days at room temperature.

For `CS(=O)(=O)N1CCN(Cc2ccc3[nH]c(-c4cc5ccccc5[nH]c4=O)cc3c2)CC1` [Salt 1-11D], which solubility (Aqueous ETOH) is on record?
The solubility was 4.34 mg/mL.

And the solubility (Aqueous IPA)?
The solubility was 3.99 mg/mL.

What about the solubility (Ethanol) of the same molecule?
The solubility was 0.13 mg/mL.

What about the solubility (Isopropanol) of the same molecule?
Its solubility is 0.057 mg/mL.

And the solubility (Water)?
Its solubility is 0.62 mg/mL.
